Results from the NIST ThermoML archive (doi:10.1016/j.tca.2004.07.014).

Legend:
[1] = xn = mol fraction of the nth substance listed; conditions: 303.15 K, 101.3 kPa, Liquid; for speed of sound: Linear variable-path acoustic interferometer
[2] = 303.15 K, 101.3 kPa, Liquid; for speed of sound: Linear variable-path acoustic interferometer

CCOC(=O)C(Br)C(=O)OCC [diethyl bromomalonate] + ClC(Cl)Cl
[1]
Conditions | mass density [kg/m3] | speed of sound [m/s] | viscosity [mPa·s]
x1 = 0.098 | 1460.41 | 989 | 0.709
x1 = 0.1971 | 1450.47 | 1010 | 0.941
x1 = 0.296 | 1441.28 | 1032 | 1.2
x1 = 0.4033 | 1432.36 | 1054 | 1.507
x1 = 0.5045 | 1424.91 | 1075 | 1.84
x1 = 0.5919 | 1419.12 | 1092 | 2.141
x1 = 0.6911 | 1413.32 | 1112 | 2.501
x1 = 0.7991 | 1407.82 | 1131 | 2.899
x1 = 0.8997 | 1403.21 | 1149 | 3.253

CCOC(=O)CCl [ethyl chloroethanoate]
[2]
Conditions | mass density [kg/m3] | speed of sound [m/s] | viscosity [mPa·s]
– | 1139.18 | 1227 | 1.275

CCOC(=O)CCl [ethyl chloroethanoate] + ClC(Cl)(Cl)Cl
[1]
Conditions | mass density [kg/m3] | speed of sound [m/s] | viscosity [mPa·s]
x1 = 0.095 | 1530.01 | 933 | 0.853
x1 = 0.1992 | 1481.59 | 964 | 0.862
x1 = 0.298 | 1436.61 | 994 | 0.862
x1 = 0.3972 | 1392.26 | 1025 | 0.87
x1 = 0.5 | 1347.02 | 1058 | 0.891
x1 = 0.5978 | 1304.82 | 1089 | 0.928
x1 = 0.6984 | 1262.23 | 1123 | 0.967
x1 = 0.8044 | 1218.14 | 1158 | 1.021
x1 = 0.8978 | 1180.11 | 1191 | 1.113
x1 = 1 | 1139.18 | 1227 | 1.275

CCOC(=O)CCl [ethyl chloroethanoate] + ClC(Cl)Cl
[1]
Conditions | mass density [kg/m3] | speed of sound [m/s] | viscosity [mPa·s]
x1 = 0.0989 | 1429.89 | 990 | 0.617
x1 = 0.1945 | 1392.15 | 1014 | 0.687
x1 = 0.2954 | 1354.22 | 1038 | 0.759
x1 = 0.3905 | 1320.14 | 1062 | 0.806
x1 = 0.5048 | 1281.24 | 1091 | 0.852
x1 = 0.6012 | 1250.32 | 1115 | 0.9
x1 = 0.6875 | 1223.93 | 1137 | 0.943
x1 = 0.7658 | 1201.01 | 1159 | 0.989
x1 = 0.8992 | 1164.5 | 1198 | 1.114

ClC(Cl)(Cl)Cl [tetrachloromethane]
[2]
Conditions | mass density [kg/m3] | speed of sound [m/s] | viscosity [mPa·s]
– | 1574.82 | 905 | 0.844

ClC(Cl)(Cl)Cl [tetrachloromethane] + CCOC(=O)CCl
[1], x2 = 0
Conditions | mass density [kg/m3] | speed of sound [m/s] | viscosity [mPa·s]
– | 1574.82 | 905 | 0.844

ClC(Cl)Cl [trichloromethane]
[2]
Conditions | mass density [kg/m3] | speed of sound [m/s]
– | 1470.59 | 967

Conditions | viscosity [mPa·s]
[2], Capillary tube (Ostwald / Ubbelohde) method | 0.512

ClC(Cl)Cl [trichloromethane] + CCOC(=O)CCl
[1], x2 = 0
Conditions | mass density [kg/m3] | speed of sound [m/s] | viscosity [mPa·s]
– | 1470.59 | 967 | 0.512
